Test results reported in US8404664B2, “Phosphonated Rifamycins and uses thereof for the prevention and treatment of bone and joint infections” (Targanta Therapeutics, Inc., priority 2005, dated 2013).

Legend:
[1] = tested on: S. aureus BK85 (Fluoroquinolone resistant MRSA); experiment: Antibacterial susceptibility (MIC), NCCLS broth microdilution; type: cell-based
Summary of the method: (§1)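 Two-fold serial dilutions in DMSO tested in cation-adjusted Mueller Hinton broth per NCCLS M26-A, 5×10^5 c.f.u./mL inoculum, 1.25% final DMSO, duplicates.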

S. aureus RN4220 = experiment: as above; type: cell-based; details: CAMHB, 37° C., 18 h
Summary of the method: as §1

S. aureus ATCC 13709 [2] = experiment: as above; type: cell-based
Summary of the method: as §1

[3] = tested on: S. aureus ATCC 43300 (Fluoroquinolone sensitive MRSA); experiment: as above; type: cell-based
Summary of the method: as §1

[4] = tested on: S. aureus (chronic bone infection); experiment: Treatment of chronic osteomyelitis caused by S. aureus in rat model; type: in vivo; details: prodrug iv at 20 mg/kg parent equivalent
Text: To appraise the ability of bisphosphonated prodrugs of Rifamycin derivatives in treating chronic bone infections, a comparison was made between parent compounds 9, 56, 69, rifabutin and rifalazil (all of which are non-bisphosphonated rifamycin derivatives), and their corresponding bisphosphonated prodrugs, respectively 11, 62, 71, 36 and 81, when used to treat chronically (14- to 28-day) infected rats for 4 weeks of antimicrobial therapy.
In this experiment, rats were infected as described in Example 4 and treated with either 20 mg/kg of body weight of the specific rifamycin derived antibacterial agent subcutaneously, or a molar equivalent dose of its bisphosphonated prodrug intravenously according to the indicated schedule after instillation of bacteria. The standard controls involving no treatment and a subcutaneous treatment of 20 mg/kg of Rifampicin daily were also included. The rats were humanely sacrificed at the conclusion of the experiment and the bacterial titers in the infected tibiae were determined.
This experiment was performed with 20 mg/kg of body weight of rifamycin derivative 9 subcutaneously or with 32 mg/kg of its prodrug 11 (corresponding to 20 mg/kg of 9) intravenously on each of the 20th, 24th, 28th, 32nd, 36th, 40th and […] days (q4 days) after instillation of bacteria. Alternatively, 11 was administered by the same route and at the same dose on the 20th, 21st, 22nd, 23rd, 30th, 37th, 44th and 47th days (q24hx4+q7d) after the instillation of bacteria. The same controls (no treatment or daily subcutaneous 20 mg/kg dose of rifampicin) were used. The rats were humanely sacrificed on the 48th day after the initiation of infection and the bacterial titers in the infected tibiae were determined.
This experiment was also executed in which similarly infected rats were treated with either 20 mg/kg of body weight of rifabutin subcutaneously or with 33.4 mg/kg of its prodrug 36 (corresponding to 20 mg/kg of rifabutin) intravenously on each of the 28th, 32nd, 36th, 40th, 44th, 48th and 52nd days (q4 days) after instillation of bacteria. The same controls (no treatment or daily subcutaneous 20 mg/kg dose of rifampicin) were used. The rats were humanely sacrificed on the 55th day after the initiation of infection and the bacterial titers in the infected tibiae were determined.
This experiment was also executed in which similarly infected rats were treated with either 20 mg/kg of body weight of the rifamycin derived antibacterial agent 56 subcutaneously or with 26 mg/kg of its prodrug 62 (corresponding to 20 mg/kg of 56) intravenously on each of the 27th, 28th, 29th, 30th, 34th, 38th, 42nd, 46th and 50th days (q24hx4+q4 days) after instillation of bacteria. The same controls (no treatment or daily subcutaneous 20 mg/kg dose of rifampicin) were used. The rats were humanely sacrificed on the 51^St day after the initiation of infection and the bacterial titers in the infected tibiae were determined.
This experiment was also executed in which similarly infected rats were treated with either 20 mg/kg of body weight of the rifamycin derived antibacterial agent 69 subcutaneously or with 28 mg/kg of its prodrug 71 (corresponding to 20 mg/kg of 69) intravenously on each of the 18th, 19th, 20th, 21st, 25th, 29th, 33rd, 37th, 41st and 45th days (q24hx4+q4 days) after instillation of bacteria. The same controls (no treatment or daily subcutaneous 20 mg/kg dose of rifampicin) were used. The rats were humanely sacrificed on the 46th day after the initiation of infection and the bacterial titers in the infected tibiae were determined.

[5] = tested on: E. coli LBB925 (tolC mutant); experiment: Antibacterial susceptibility (MIC), NCCLS broth microdilution; type: cell-based; details: tolC mutant
S. aureus ATCC 13709 [6] = experiment: Antibacterial susceptibility (MIC) in the presence of serum; type: cell-based
[7] = Regeneration of drug from bone powder-bound prodrug; type: in vitro ADME; details: for % Conversion of bone-bound prodrug to parent drug: 24 h incubation, 37° C.
[8] = tested on: S. aureus ATCC 13709 Novobiocin and Rifampicin resistant variant; experiment: microbe, parasite or virus in culture; type: cell-based
Summary of the method: as §1

For `CO[C@H]1/C=C/O[C@@]2(C)Oc3c(C)c(O)c4c(=O)c(c5oc6cc(N7CCN(CCOC(=O)CCC(=O)NC(P(=O)(O)O)P(=O)(O)O)CC7)cc(O)c6nc-5c4c3C2=O)NC(=O)/C(C)=C\C=C\[C@H](C)[C@H](O)[C@@H](C)[C@@H](O)[C@@H](C)[C@H](OC(C)=O)[C@@H]1C.N.N` [Compound 62], the “Minimum inhibitory concentration, S. aureus BK85” value [1] was 0.0078 µg/mL, the “Minimum inhibitory concentration, S. aureus RN4220” value (S. aureus RN4220) was 0.0078 µg/mL and the “Minimum inhibitory concentration, S. aureus ATCC 13709” value (S. aureus ATCC 13709 [2]) was 0.0039 µg/mL. For the same compound, the “Antibacterial activity (in words, summary of Table 1)” value (S. aureus ATCC 13709 [2]; summary over the strains of Table 1) was “very low MICs”, the “Minimum inhibitory concentration, S. aureus ATCC 43300” value [3] was 0.0078 µg/mL and the “Decrease in bacterial titer” value ([4]; q24hx4+q4 days, FIGS. 3, 4, 5) was “approximately 1 logarithmic order of magnitude”. For the same compound, the “Effect on bacterial titer in bone infection versus the untreated control (figure legends)” value ([4]; regimen of the figure, 4 weeks post-infection) was “small but statistically significant effect”, the “Minimum inhibitory concentration, E. coli LBB925” value [5] was greater than 128 µg/mL and the “Minimum inhibitory concentration, S. aureus ATCC 13709 + 50% Human Serum” value (S. aureus ATCC 13709 [6]; 50% Human Serum) was 0.032 µg/mL. For the same compound, the “Minimum inhibitory concentration, S. aureus ATCC 13709 + 50% Mouse Serum” value (S. aureus ATCC 13709 [6]; 50% Mouse Serum) was 0.032 µg/mL, the “Minimum inhibitory concentration, S. aureus ATCC 13709 + 50% Rat Serum” value (S. aureus ATCC 13709 [6]; 50% Rat Serum) was 0.0156 µg/mL and the “Regeneration of parent drug once bound to bone (in words)” value [7] was “appreciable rates of regeneration”. For the same compound, the “% Conversion of bone-bound prodrug to parent drug” value (“% Conversion of bone-bound prodrug” for short) ([7]; 50% Human Serum) was 0.86%, the “% Conversion of bone-bound prodrug” value ([7]; 50% Rat Serum) was 0.91% and the “% Conversion of bone-bound prodrug” value ([7]; PBS) was 0.21%. The “Impact of the medium on the rate of regeneration of parent drug (in words)” value ([7]; serum compared to PBS) was “significant acceleration”, the “Activity against the Rifampicin resistant variant of S. aureus ATCC13709 (in words)” value [8] was “complete lack of activity” and the “Minimum inhibitory concentration, S. aureus ATCC 13709 variant” value ([8]; Novobiocin and Rifampicin resistant variant) was greater than 128 µg/mL.
